Laboratory results as given in ChEMBL document CHEMBL3430912, “GSK Tres Cantos Anti-Kinetoplastid Screening (TCAKS) Data”.

Assays:
[1] = tested on: Trypanosoma cruzi; test: GSK_TCAKS: pIC50 Trypanosoma cruzi viability assay using beta-GAL activity. This assay was run at single shot at 5uM compound concentration per well. The biological reagents consisted of NIH-3T3 host cells and trypomastigotes parasitic cells; both cell types were set to a 3.3 * 10^5 cells/mL dilution in assay DMEM by means of a CASY cell counter device using a 60um capillary. 6 uL of the mixture were dispensed per well (about 1 * 10^3 host-cells and 1 * 10^3 parasites) with a Multidrop Combi dispenser. […] In all wells, the percentage of DMSO never exceeded 0.5%. Plates incubated for four days at 37C, 5% CO2. The substrate used for the assay fluorescence intensity (FLINT) readout was resorufin-beta-D-galactopiranoside (Sigma-Aldrich) at 5uM per well. It was diluted in PBS supplemented with the soft detergent Igepal (Fluka).; assay type: functional, organism-based, Mus musculus; conditions: Tulahuen, NIH3T3
[2] = tested on: Trypanosoma cruzi; test: (§1) GSK_TCAKS: pIC50 Trypanosoma cruzi Imaging: Infected Cells. […] Cells were then washed once with PBS before infection. T. cruzi trypomastigotes, collected at days 5 to 8 after infection from LLC-MK2 parasite infected cultures, were allowed to swim out for 4h at 37C from a centrifuged pellet (2,500 rpm/10 min/room temperature). Trypomastigotes were then collected and counted in a CASY Cell Counter. Trypomastigotes, in supplemented DMEM, were added to H9c2 cultures in a multiplicity of infection of 1 and incubated for 18 h. Cells were washed once with PBS before incubation of the infected H9c2 monolayer with trypsin (Life-Technologies) to detach cells from the flask. Cells were counted in a CASY Cell Counter using a 150 um capillary and their density set at 5 * 10^4 cells per mL in supplemented assay DMEM. Infected H9c2 were dispensed into 384-well poly-lysine coated assay plates at 50uL per well using a Multidrop Combi dispenser. After seeding them, the plates were incubated at 37C, 5% CO2 for 72h. Cultures were then fixed and stained by addition of 50 uL of a solution containing 8% formaldehyde and 4 uM DRAQ5 DNA dye (BioStatus, UK) per well. […] Five images were collected per well for reliable statistical analysis. Automated image analysis was performed with a script developed on Acapella High Content Imaging and Analysis Software (PerkinElmer). Output: percentage of infected cells per well as a second infection marker.; assay type: functional, organism-based, Rattus norvegicus; conditions: H9c2, 4 h
[3] = tested on: Trypanosoma cruzi; test: GSK_TCAKS: pIC50 Trypanosoma cruzi Imaging: Amastigotes/Cell. […] Cells were then washed once with PBS before infection. T. cruzi trypomastigotes, collected at days 5 to 8 after infection from LLC-MK2 parasite infected cultures, were allowed to swim out for 4h at 37C from a centrifuged pellet (2,500 rpm/10 min/room temperature). Trypomastigotes were then collected and counted in a CASY Cell Counter. Trypomastigotes, in supplemented DMEM, were added to H9c2 cultures in a multiplicity of infection of 1 and incubated for 18 h. Cells were washed once with PBS before incubation of the infected H9c2 monolayer with trypsin (Life-Technologies) to detach cells from the flask. Cells were counted in a CASY Cell Counter using a 150 um capillary and their density set at 5 * 10^4 cells per mL in supplemented assay DMEM. Infected H9c2 were dispensed into 384-well poly-lysine coated assay plates at 50uL per well using a Multidrop Combi dispenser. After seeding them, the plates were incubated at 37C, 5% CO2 for 72h. Cultures were then fixed and stained by addition of 50 uL of a solution containing 8% formaldehyde and 4 uM DRAQ5 DNA dye (BioStatus, UK) per well. […] Five images were collected per well for reliable statistical analysis. Automated image analysis was performed with a script developed on Acapella High Content Imaging and Analysis Software (PerkinElmer). Output: number of amastigotes per cell as infection level measurement.; assay type: functional, organism-based, Rattus norvegicus; conditions: H9c2, 4 h
[4] = tested on: Trypanosoma cruzi; test: as §1, with “H2C9” for “Trypanosoma cruzi”, “H9c2 Host Cardiomyocytes.” for “Infected Cells.”, “Number” for “percentage”, “H9c2 Host Cardiomyocytes nuclei to determine drug-related cytotoxicity.” for “infected cells per well as a second infection marker.”; assay type: functional, organism-based, Rattus norvegicus; conditions: H9c2, 4 h
[5] = tested on: Leishmania donovani; test: GSK_TCAKS: pIC50 Leishmania donovani viability assay using fluorescence intensity. Assay plates (1536-well) were prepared by adding 30nL per well of compound. For single shot assay, the final compound concentration was 5uM. […] Briefly, eGFP LdBOB axenic amastigotes were harvested, fixed and counted in a CASY cell counter (Roche-Applied Science). A final concentration of 1.5 * 10^5 cells per well were prepared in amastigote media containing 500 U/mL penicillin/streptomycin (Invitrogen) and 6uL was dispensed to each experimental well using a Multidrop Combi dispenser (Thermo Scientific). 6uL of assay media was dispensed to control columns used as reference for 100% compound response. Following incubation for 72 h at 37C, 5% CO2, 2 uL of resazurin was added to each well at a final concentration of 0.5 mM in phosphate buffered saline (PBS) with IGEPAL (Sigma-Aldrich), 0.05% (v/v).; assay type: functional, organism-based
[6] = tested on: Leishmania donovani; test: (§2) GSK_TCAKS: pIC50 Leishmania donovani Imaging: Infected Macrophages. Assay plates (384-well) were prepared by adding 250nL of compound to each well. For single shot assay, the final compound concentration was 5 uM. […] Automated image analysis was performed with a script developed on Acapella High Content Imaging and Analysis Software (PerkinElmer). Output: Percent of infected macrophage cells were reported for each well.; assay type: functional, organism-based, Homo sapiens; conditions: THP-1
[7] = tested on: Leishmania donovani; test: as §2, with “Amastigotes/Macrophages.” for “Infected Macrophages.”, “Average number” for “Percent”, “amastigotes per” for “infected”, “cell” for “cells”; assay type: functional, organism-based, Homo sapiens; conditions: THP-1
[8] = tested on: Leishmania donovani; test: as §2, with “THP-1 Host” for “Infected”, “THP-1 cell count” for “Percent of infected macrophage cells”; assay type: functional, organism-based, Homo sapiens
[9] = tested on: Trypanosoma brucei brucei; test: GSK_TCAKS: pIC50 Trypanosoma brucei viability assay using fluorescence intensity. Assay plates (1536-well) were prepared by dispensing 25nL of compound solution per well using an Echo acoustic dispenser (Labcyte).; assay type: functional, organism-based; conditions: Lister 427, 2 h
[10] = tested on: Trypanosoma brucei brucei; test: GSK_TCAKS: pIC50 Trypanosoma brucei viability assay using luminiscence. Assay plates (1536-well) were prepared. T. brucei cultures were harvested and counted in a CASY cell counter. A parasite suspension was prepared at a final concentration of 5 * 10^4 cells/mL in complete HMI9 medium and 6uL was dispensed to all wells containing compounds using a Multidrop Combi dispenser. 6uL of HMI9 media with 0.4% DMSO were dispensed to control columns. Plates were incubated for 24 h at 37C, 5% CO2 then tempered for 10 min at room temperature. ATP content was quantified by adding 4 uL of CellTiter-Glo Reagent (Promega) according to the manufacturer's instructions. Luminescence was measured using a ViewLux.; assay type: functional, organism-based; conditions: Lister 427, CASY
[11] = GSK_TCAKS: pIC50 HepG2 human cell line viability assay using luminiscence. […] Seeding density was checked to ensure that new mono-layers were not more than 50% confluent at the time of harvesting. Cell suspension was added to 500 mL of the same medium at a final density of 1.2 * 10^5 cells/mL. This cell suspension was dispensed (25 uL, 3000 cells per well) into 384-well clear-bottom plates using a Multidrop Combi dispenser. Prior to addition of the cell suspension, the screening compounds (250 nL) were pre-dispensed into the plates with an Echo liquid handler. Plates were incubated for 48 h at 37C, 5% CO2. After incubation, plates equilibrated at room temperature for 30 min before proceeding to develop the luminescent signal. The signal developer, CellTiter-Glo Reagent, was allowed to equilibrate at room temperature for 30 min and added to the plates (25uL per well) using a Multidrop Combi dispenser. Plates were left for 10 min at room temperature for stabilization and then read using a ViewLux.; assay type: toxicity, cell-based
[12] = tested on: NIH3T3; test: GSK_TCAKS: pIC50 NIH 3T3 cell line viability assay using luminiscence. Tissue culture surface treated assay plates (1536-well) were used. […] The 100% cells survival control was determined exposing the host-cells to a 0.5% DMSO concentration, whereas the 100% toxicity control was achieved by seeding the cells in presence of Amphotericin B at 50uM. Plates were incubated for four days at 37C, 5% CO2. The assay readout was developed by addition of 5uL of CellTiter-Glo Reagent following the manufacturer's instructions. Luminiscence was measured using a ViewLux.; assay type: functional, cell-based; conditions: Mus musculus, NIH3T3, 96 h
[13] = molecular target: Sterol 14-alpha demethylase (Trypanosoma cruzi (strain CL Brener), UniProt Q7Z1V1); test: GSK_TCAKS: pIC50 CYP51 from Trypanosoma cruzi.; assay type: functional
Sterol 14-alpha demethylase, sequence (Q7Z1V1 whole entry): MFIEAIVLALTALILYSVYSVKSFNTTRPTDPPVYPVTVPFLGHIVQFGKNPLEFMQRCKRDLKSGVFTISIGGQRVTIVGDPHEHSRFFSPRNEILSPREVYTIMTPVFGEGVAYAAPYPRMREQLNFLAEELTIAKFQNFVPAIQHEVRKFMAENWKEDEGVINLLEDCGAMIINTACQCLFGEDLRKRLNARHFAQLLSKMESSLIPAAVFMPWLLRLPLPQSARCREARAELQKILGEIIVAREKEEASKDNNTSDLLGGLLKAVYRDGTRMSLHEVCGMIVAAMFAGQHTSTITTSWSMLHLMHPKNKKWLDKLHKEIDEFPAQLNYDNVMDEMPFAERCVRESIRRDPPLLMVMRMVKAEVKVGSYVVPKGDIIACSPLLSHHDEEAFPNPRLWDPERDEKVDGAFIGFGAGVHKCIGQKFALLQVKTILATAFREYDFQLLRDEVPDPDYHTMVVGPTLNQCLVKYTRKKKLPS

SMILES	IC50 [1] [µM]	IC50 [2] [µM]	IC50 [3] [µM]	IC50 [4] [µM]	IC50 [5] [µM]	IC50 [6] [µM]	IC50 [7] [µM]	IC50 [8] [µM]	IC50 [9] [µM]	IC50 [10] [µM]	IC50 at 48 h [11] [µM]	IC50 [12] [µM]	IC50 [13] [µM]
Cc1nc2[nH]c(C)c(Cc3ccc(C(C)C)cc3)c(=O)n2n1	0.501	0.794	0.251	> 50.1	1.26	31.6	15.8	> 50.1	> 39.8	> 39.8	> 100	> 50.1	> 100
Cn1nc([N+](=O)[O-])nc1N1CCCCC1	1.26	12.6	1	> 50.1	> 50.1	> 50.1	> 50.1	> 50.1	> 39.8	> 39.8	> 100	> 50.1	> 100
COc1cc(C(C)C)c(S(C)(=O)=O)cc1C(=O)N1CCN(c2ccccc2Cl)CC1	1.58	2.51	2	20	5.01	15.8	12.6	15.8	25.1	31.6	> 100	> 50.1	> 100
O=C(NCc1ccc(-n2cccc2)cc1)c1nc(Cn2ccc([N+](=O)[O-])n2)no1	2.51	2.51	1.26	> 50.1	> 50.1	> 50.1	> 50.1	> 50.1	> 39.8	> 39.8	> 100	50.1	> 100
COc1ccc(NS(=O)(=O)c2cccc(NC(=O)c3cc(F)cc(F)c3)c2)cc1	0.794	0.501	0.501	> 50.1	3.16	> 50.1	20	> 50.1	0.631	1	31.6	25.1	> 100
Cc1cc(N(C)C)nc(Nc2ccccc2C)n1	1.58	0.794	0.501	> 50.1	> 50.1	31.6	15.8	39.8	31.6	> 39.8	63.1	39.8	> 100
O=C1CSC(c2cccnc2)N1c1ccc(Cl)cc1Cl (centres undefined)	0.0708	0.251	0.158	> 50.1	5.01	> 50.1	> 50.1	> 50.1	> 39.8	> 39.8	> 100	> 50.1	0.158
CC1(C)CCC(=Cc2ccc(Cl)cc2)CC1(O)Cn1ccnc1 (centres undefined)	0.00631	0.00794	0.00501	31.6	2.51	7.94	2	12.6	10	25.1	50.1	15.8	0.0501
